Experimental data published in ChEMBL document CHEMBL5247604, “Discovery of novel hybrids containing clioquinol-1-benzyl-1,2,3,6-tetrahydropyridine as multi-target-directed ligands (MTDLs) against Alzheimer's disease” (Eur J Med Chem, 2022).
Active and inactive are the calls of the source. The rule behind the calls is not given here.

Columns and labels:
[1] = Metal chelating activity assessed as Zn2+-compound complex formation by measuring red shift in presence of ZnCl2 at 40 uM incubated for 30 mins by UV-Visible spectrophotometry
SH-SY5Y [2] = assay: Antialzheimer activity in human SH-SY5Y cells assessed as inhibition of GA-induced tau hyperphosphorylation at Ser199 residue incubated for 24 hrs by ELISA; type: functional, cell-based
[3] = Acute toxicity in ICR mouse assessed as altered water consumption at 1200 mg/kg, po and measured after 14 days; type: organism-based; conditions: in vivo, 336 h, time 14 day
[4] = Acute toxicity in ICR mouse assessed as mortality at 1200 mg/kg, po and measured after 4 hrs; type: organism-based; conditions: in vivo
[5] = Acute toxicity in ICR mouse assessed as abnormal behavior at 1200 mg/kg, po and measured after 4 hrs; type: organism-based; conditions: in vivo
[6] = Metal chelating activity assessed as Cu2+-compound complex formation by measuring red shift in presence of CuSO4 at 40 uM incubated for 30 mins by UV-Visible spectrophotometry
[7] = Acute toxicity in ICR mouse assessed as altered food consumption at 1200 mg/kg, po and measured after 4 hrs; type: organism-based; conditions: in vivo
[8] = Acute toxicity in ICR mouse assessed as change in body weight at 1200 mg/kg, po and measured after 24 hrs; type: organism-based; conditions: in vivo
Mus musculus [9] = assay: Antialzheimer activity in human oligo-merized amyloid beta (1 to 42 residues)-induced cognitive impairment C57BL/6 mouse model assessed as decrease TNF-alpha level in cortex at 15 mg/kg,ip qd for 10 days by ELISA; type: functional, organism-based; conditions: time 10.0 day
Mus musculus [10] = assay: Antialzheimer activity in human oligo-merized amyloid beta (1 to 42 residues)-induced cognitive impairment C57BL/6 mouse model assessed as increase duration in novel arm at 15 mg/kg,ip qd for 10 days by Y-maze test relative to control; type: functional, organism-based; conditions: time 10.0 day
Mus musculus [11] = assay: Antialzheimer activity in scopolamine-induced cognitive impairment ICR mouse model assessed as time latency to reach target at 15 mg/kg,ip qd for 10 days followed by scopolmaine-stimulation measured on day 16 by Morris water maze test (Rvb= 71.89 +/- 25.59 sec); type: functional; conditions: time 10 day
Mus musculus [12] = assay: Antialzheimer activity in scopolamine-induced cognitive impairment ICR mouse model assessed as distance to reach target at 15 mg/kg,ip qd for 10 days followed by scopolmaine-stimulation measured on day 16 by Morris water maze test (Rvb= 16.93 +/- 5.88 meter); type: functional; conditions: time 10 day
[13] = molecular target: T1, Amyloid-beta precursor protein (Homo sapiens, UniProt P05067); assay: Inhibition of AChE induced HFIP-pretreated amyloid beta (1 to 42 ) (unknown origin) aggregation incubated for 24 hr by Thioflavin T based fluorometric assay
T1 sequence (P05067 whole entry): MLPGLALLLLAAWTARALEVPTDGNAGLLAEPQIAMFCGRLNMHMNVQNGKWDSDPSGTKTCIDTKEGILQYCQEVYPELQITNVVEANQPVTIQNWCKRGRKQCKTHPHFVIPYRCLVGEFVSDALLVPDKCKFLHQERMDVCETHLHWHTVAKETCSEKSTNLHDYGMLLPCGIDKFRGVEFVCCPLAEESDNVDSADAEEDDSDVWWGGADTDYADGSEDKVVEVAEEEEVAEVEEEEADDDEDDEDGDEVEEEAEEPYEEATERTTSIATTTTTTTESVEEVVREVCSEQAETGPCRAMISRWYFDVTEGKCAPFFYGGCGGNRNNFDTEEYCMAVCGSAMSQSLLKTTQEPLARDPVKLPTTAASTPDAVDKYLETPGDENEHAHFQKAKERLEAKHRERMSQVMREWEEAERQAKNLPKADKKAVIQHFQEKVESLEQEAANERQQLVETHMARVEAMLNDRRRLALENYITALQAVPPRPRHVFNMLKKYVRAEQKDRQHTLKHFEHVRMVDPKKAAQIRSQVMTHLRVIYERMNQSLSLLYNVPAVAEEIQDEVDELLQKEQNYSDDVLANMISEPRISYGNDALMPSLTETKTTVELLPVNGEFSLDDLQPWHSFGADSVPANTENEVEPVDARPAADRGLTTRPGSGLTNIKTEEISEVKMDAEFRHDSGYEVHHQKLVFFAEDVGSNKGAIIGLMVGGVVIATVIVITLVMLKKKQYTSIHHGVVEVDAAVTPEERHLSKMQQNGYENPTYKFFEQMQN

SH-SY5Y [14] = assay: Antioxidant activity against okadaic acid-induced ROS generation in human SH-SY5Y cells assessed as reduction in DCF fluorescence intensity pretreated for 24 hrs followed by okadaic acid addition for 24 hrs by DCFH-DA dye based fluorescence analysis; type: functional, cell-based
[15] = molecular target: T1, Amyloid-beta precursor protein; assay: Inhibition of amyloid beta (1 to 42 ) (unknown origin) self aggregation incubated for 24 hr by Thioflavin T based fluorometric assay
Mus musculus [16] = assay: Antialzheimer activity in human oligo-merized amyloid beta (1 to 42 residues)-induced cognitive impairment C57BL/6 mouse model assessed as decrease IL-1beta level in cortex at 15 mg/kg,ip qd for 10 days by ELISA; type: functional, organism-based; conditions: time 10.0 day
Mus musculus [17] = assay: Antialzheimer activity in human oligo-merized amyloid beta (1 to 42 residues)-induced cognitive impairment C57BL/6 mouse model assessed as increase in ratio of brain to body weight at 15 mg/kg,ip qd for 10 days by Morris water maze test; type: functional, organism-based; conditions: time 10.0 day
[18] = Acute toxicity in ICR mouse assessed as altered food consumption at 1200 mg/kg, po and measured after 24 hrs; type: organism-based; conditions: in vivo
SH-SY5Y [19] = assay: Antioxidant activity against okadaic acid-induced ROS generation in human SH-SY5Y cells assessed as reduction in DCF fluorescence intensity at 1 to 10 uM pretreated for 24 hrs followed by okadaic acid addition for 24 hrs by DCFH-DA dye based fluorescence analysis; type: functional, cell-based; conditions: dose 1-10 µM
Mus musculus [20] = assay: Antialzheimer activity in human oligo-merized amyloid beta (1 to 42 residues)-induced cognitive impairment C57BL/6 mouse model assessed as increase in percentage of time spent in the target quadrant at 15 mg/kg,ip qd for 10 days by Morris water maze test relative to control; type: functional, organism-based; conditions: time 10.0 day
[21] = Acute toxicity in ICR mouse assessed as mortality at 1200 mg/kg, po and measured after 14 days; type: organism-based; conditions: in vivo, 336 h, time 14 day
[22] = Acute toxicity in ICR mouse assessed as change in body weight at 1200 mg/kg, po and measured after 4 hrs; type: organism-based; conditions: in vivo
[23] = Acute toxicity in ICR mouse assessed as change in body weight at 1200 mg/kg, po and measured after 14 days; type: organism-based; conditions: in vivo, 336 h, time 14 day
[24] = Acute toxicity in ICR mouse assessed as altered water consumption at 1200 mg/kg, po and measured after 24 hrs; type: organism-based; conditions: in vivo
[25] = Metal chelating activity assessed as Fe3+-compound complex formation by measuring red shift in presence of FeCl3 at 40 uM incubated for 30 mins by UV-Visible spectrophotometry
SH-SY5Y [26] = assay: Antialzheimer activity in human SH-SY5Y cells assessed as inhibition of GA-induced tau hyperphosphorylation at Ser199 residue at 0.1 to 3 uM incubated for 24 hrs by ELISA; type: functional, cell-based; conditions: dose 0.1-3 µM
SH-SY5Y [27] = assay: Neuroprotective activity in human SH-SY5Y cells assessed as inhibition of okadaic acid-induced mitochondrial membrane potential by measuring increase in red-to-green fluorescence intensity ratio pretreated for 24 hrs followed by okadaic acid addition for 24 hrs by JC-1 dye based fluorescence analysis; type: functional, cell-based
SH-SY5Y [28] = assay: Neuroprotective activity in human SH-SY5Y cells assessed as inhibition of okadaic acid-induced mitochondrial membrane potential by measuring increase in red-to-green fluorescence intensity ratio at 1 to 10 uM pretreated for 24 hrs followed by okadaic acid addition for 24 hrs by JC-1 dye based fluorescence analysis; type: functional, cell-based; conditions: dose 1-10 µM
[29] = Metal chelating activity assessed as Al3+-compound complex formation by measuring red shift in presence of AlCl3 at 40 uM incubated for 30 mins by UV-Visible spectrophotometry
[30] = molecular target: T1, Amyloid-beta precursor protein; assay: Inhibition of AChE induced HFIP-pretreated amyloid beta (1 to 42 ) (unknown origin) aggregation at 0.1 to 10 uM incubated for 24 hr by Thioflavin T based fluorometric assay; conditions: dose 0.1-10 µM
Acetylcholinesterase [31] = molecular target: Acetylcholinesterase (Electrophorus electricus, UniProt O42275); assay: Inhibition of electric eel AChE using acetylthiocholine iodide as substrate preincubated for 15 mins followed by substrate addition by Ellman's method
Sequence of Acetylcholinesterase (Electrophorus electricus, UniProt O42275) (O42275 whole entry, the tested form may be a part): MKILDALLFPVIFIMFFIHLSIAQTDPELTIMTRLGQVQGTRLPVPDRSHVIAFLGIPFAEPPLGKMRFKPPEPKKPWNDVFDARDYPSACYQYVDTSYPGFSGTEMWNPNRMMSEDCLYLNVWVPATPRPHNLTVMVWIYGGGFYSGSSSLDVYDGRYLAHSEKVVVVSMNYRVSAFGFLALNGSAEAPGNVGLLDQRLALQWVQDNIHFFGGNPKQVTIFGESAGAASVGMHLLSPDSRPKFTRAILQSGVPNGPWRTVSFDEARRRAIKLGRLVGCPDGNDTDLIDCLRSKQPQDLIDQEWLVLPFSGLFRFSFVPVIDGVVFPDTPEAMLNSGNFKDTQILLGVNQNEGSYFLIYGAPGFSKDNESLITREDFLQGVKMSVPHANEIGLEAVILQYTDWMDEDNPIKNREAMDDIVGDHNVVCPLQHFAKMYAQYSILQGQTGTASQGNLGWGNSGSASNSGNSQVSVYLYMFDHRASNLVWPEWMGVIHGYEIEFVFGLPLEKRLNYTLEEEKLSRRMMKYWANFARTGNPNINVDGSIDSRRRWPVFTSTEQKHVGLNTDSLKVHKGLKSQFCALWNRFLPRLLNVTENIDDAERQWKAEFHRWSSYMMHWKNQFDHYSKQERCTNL

Mus musculus [32] = assay: Antialzheimer activity in human oligo-merized amyloid beta (1 to 42 residues)-induced cognitive impairment C57BL/6 mouse model assessed as decrease in escape latency at 15 mg/kg,ip qd for 10 days by Morris water maze test relative to control; type: functional, organism-based; conditions: time 10.0 day
[33] = Acute toxicity in ICR mouse assessed as altered water consumption at 1200 mg/kg, po and measured after 4 hrs; type: organism-based; conditions: in vivo
[34] = molecular target: T1, Amyloid-beta precursor protein; assay: Inhibition of Cu2+ induced amyloid beta (1 to 42 ) (unknown origin) aggregation incubated for 24 hr by Thioflavin T based fluorometric assay
Acetylcholinesterase [35] = molecular target: Acetylcholinesterase (Homo sapiens, UniProt P22303); assay: Inhibition of AChE in human SH-SY5Ycells assessed as reduction AChE activity using acetylthiocholine as substrate incubated for 24 hrs by DTNB based Ellman's method; type: cell-based, SH-SY5Y
Sequence of Acetylcholinesterase (Homo sapiens, UniProt P22303) (P22303 whole entry): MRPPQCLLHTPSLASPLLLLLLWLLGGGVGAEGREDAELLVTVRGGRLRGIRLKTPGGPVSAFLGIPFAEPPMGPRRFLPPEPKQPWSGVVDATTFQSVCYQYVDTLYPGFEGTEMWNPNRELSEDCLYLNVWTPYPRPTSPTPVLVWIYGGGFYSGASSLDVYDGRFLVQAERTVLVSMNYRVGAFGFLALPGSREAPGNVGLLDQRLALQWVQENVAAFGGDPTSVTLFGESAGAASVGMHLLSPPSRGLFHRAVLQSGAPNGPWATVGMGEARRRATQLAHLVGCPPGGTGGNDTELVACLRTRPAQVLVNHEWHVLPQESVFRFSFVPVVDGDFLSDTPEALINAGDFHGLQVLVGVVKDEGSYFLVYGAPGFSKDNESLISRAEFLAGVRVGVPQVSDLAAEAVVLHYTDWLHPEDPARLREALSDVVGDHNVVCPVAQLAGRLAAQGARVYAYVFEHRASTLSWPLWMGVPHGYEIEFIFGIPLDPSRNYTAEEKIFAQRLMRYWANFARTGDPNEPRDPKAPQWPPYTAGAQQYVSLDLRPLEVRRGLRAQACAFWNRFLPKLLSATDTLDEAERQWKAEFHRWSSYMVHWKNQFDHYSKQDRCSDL

SH-SY5Y [36] = assay: Antialzheimer activity in human SH-SY5Y cells assessed as inhibition of GA-induced tau hyperphosphorylation at Ser396 residue at 0.1 to 3 uM incubated for 24 hrs by ELISA; type: functional, cell-based; conditions: dose 0.1-3 µM
[37] = Acute toxicity in ICR mouse assessed as mortality at 1200 mg/kg, po and measured after 24 hrs; type: organism-based; conditions: in vivo
[38] = Acute toxicity in ICR mouse assessed as altered food consumption at 1200 mg/kg, po and measured after 14 days; type: organism-based; conditions: in vivo, 336 h, time 14 day
[39] = molecular target: T1, Amyloid-beta precursor protein; assay: Inhibition of Cu2+ induced amyloid beta (1 to 42 ) (unknown origin) aggregation assessed as reduction in fibrils incubated for 24 hr by TEM analysis
[40] = Acute toxicity in ICR mouse assessed as abnormal behavior at 1200 mg/kg, po and measured after 14 days; type: organism-based; conditions: in vivo, 336 h, time 14 day
SH-SY5Y [41] = assay: Antialzheimer activity in human SH-SY5Y cells assessed as inhibition of GA-induced tau hyperphosphorylation at Ser396 residue incubated for 24 hrs by ELISA; type: functional, cell-based
SH-SY5Y [42] = assay: Cytotoxicity against human SH-SY5Y cells assessed as reduction in cell viability upto 50 uM incubated for 24 hrs by MTT assay; type: toxicity, cell-based
[43] = Metal chelating activity assessed as Fe2+-compound complex formation by measuring red shift in presence of FeSO4 at 40 uM incubated for 30 mins by UV-Visible spectrophotometry
[44] = Acute toxicity in ICR mouse assessed as abnormal behavior at 1200 mg/kg, po and measured after 24 hrs; type: organism-based; conditions: in vivo

For `Cl.Oc1cccc2ccc(/C=C/C3=CCN(Cc4ccccc4C(F)(F)F)CC3)nc12`, the Activity [1] was “Active”, the IC50 (SH-SY5Y [2]) was 82 µM and the Activity [3] was “Non-Toxic”. For the same compound, the Activity [4] was “Non-Toxic”, the Activity [5] was “Non-Toxic” and the Activity [6] was “Active”. The Activity [7] was “Non-Toxic”, the Activity [8] was “Non-Toxic” and the Activity (Mus musculus [9]) was “Active”. For the same compound, the Activity (Mus musculus [10]) was “Active”, the Time (Mus musculus [11]) was 35.22 s and the Activity (Mus musculus [12]) was 8.05 m. The IC50 [13] was 1660 µM, the IC50 (SH-SY5Y [14]) was 213 µM and the inhibition [15] was “inactive”. The Activity (Mus musculus [16]) was “Active”, the Activity (Mus musculus [17]) was “Active” and the Activity [18] was “Non-Toxic”. The Activity (SH-SY5Y [19]) was “Active”, the Activity (Mus musculus [20]) was “Active” and the Activity [21] was “Non-Toxic”. For the same compound, the Activity [22] was “Non-Toxic”, the Activity [23] was “Non-Toxic” and the Activity [24] was “Non-Toxic”. For the same compound, the Activity [25] was “Active”, the Activity (SH-SY5Y [26]) was “Active” and the IC50 (SH-SY5Y [27]) was 434 µM. For the same compound, the Activity (SH-SY5Y [28]) was “Active”, the Activity [29] was “Active” and the inhibition [30] was “Dose-Dependent Effect”. The IC50 (Acetylcholinesterase [31]) was 0.11 µM, the Activity (Mus musculus [32]) was “Active” and the Activity [33] was “Non-Toxic”. For the same compound, the inhibition [34] was “Active”, the IC50 (Acetylcholinesterase [35]) was 161 µM and the Activity (SH-SY5Y [36]) was “Active”. The Activity [37] was “Non-Toxic”, the Activity [38] was “Non-Toxic” and the inhibition [39] was “Active”. For the same compound, the Activity [40] was “Non-Toxic”, the IC50 (SH-SY5Y [41]) was 138 µM and the Activity (SH-SY5Y [42]) was “Non-Toxic”. The Activity [43] was “Active” and the Activity [44] was “Non-Toxic”.
